In patent US20230265151A1, “GIP/GLP1 CO-AGONIST COMPOUNDS” (priority 2020, published 2023):
Like-named read-outs stand apart in the source and are kept apart here. *1 amine or outer side, *2 acyl side, *3 side chain or, on linkers, in order; H or OH if unused. Where a SMILES comes first, the peptide text is derived from it. Side-chain parts run from the residue outwards. [ ]: non-standard residue; d: D form. The star is where a group is joined. Undecanoyl(11-OPh(4-COOH)) = O=C(O)c1ccc(OCCCCCCCCCCC(=O)*)cc1; αMePhe(2-F) = C[C@](N)(Cc1ccccc1F)C(=O)O; γGlu = O=C(O)[C@H](CCC(=O)[*:2])N[*:1]; αMeY = C[C@](N)(Cc1ccc(O)cc1)C(=O)O; 4Pal = N[C@@H](Cc1ccncc1)C(=O)O; αMeL = CC(C)C[C@](C)(N)C(=O)O; Orn = NCCC[C@H](N)C(=O)O; AEEA = NCCOCCOCC(=O)O; Aib = CC(C)(N)C(=O)O

Assays:
Format in all cases: cell-based
[1] = molecular target: T1, hGIPR (Homo sapiens, UniProt P48546); assay: Functional cAMP formation (HTRF) in HEK-293 clonal cells expressing hGIPR, 0.1% bovine casein, without or with 1.0% human serum albumin; settings: for EC50: geometric mean
T1 construct: expressed in transfected cells
T1 sequence (P48546 22-466): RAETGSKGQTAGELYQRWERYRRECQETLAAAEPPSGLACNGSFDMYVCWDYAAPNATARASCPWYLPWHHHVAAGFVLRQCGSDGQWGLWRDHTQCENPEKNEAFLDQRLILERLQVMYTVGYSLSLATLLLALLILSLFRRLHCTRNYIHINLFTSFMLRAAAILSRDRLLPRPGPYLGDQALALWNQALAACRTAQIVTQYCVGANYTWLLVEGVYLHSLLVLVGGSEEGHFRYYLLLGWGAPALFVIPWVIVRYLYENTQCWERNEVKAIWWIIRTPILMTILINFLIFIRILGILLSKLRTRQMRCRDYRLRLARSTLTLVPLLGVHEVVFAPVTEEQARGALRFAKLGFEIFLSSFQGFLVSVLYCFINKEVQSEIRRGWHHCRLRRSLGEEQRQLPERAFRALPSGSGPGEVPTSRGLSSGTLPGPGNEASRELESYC
Outline: (§1)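 Readings of the HTRF 665/620 nm ratio, which falls as cAMP rises, were converted to nM cAMP using a standard curve after 30 min peptide exposure at 37° C.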

[2] = molecular target: T2, hGCGR (Homo sapiens, UniProt P47871); assay: Functional cAMP formation (HTRF) in HEK-293 clonal cells expressing hGCGR, 0.1% bovine casein, without or with 1.0% human serum albumin; settings: geometric mean
T2 construct: expressed in transfected cells
Outline: as §1

[3] = molecular target: hGLP-1R (Homo sapiens, UniProt P43220); assay: Functional cAMP formation (HTRF) in HEK-293 clonal cells expressing hGLP-1R, 0.1% bovine casein, without or with 1.0% human serum albumin; set-up: expressed in transfected cells; settings: for EC50: geometric mean
Outline: as §1

[4] = HEK293, 0.1% bovine casein and 1.0% human serum albumin, 37° C., percent of maximal response to GIP(1-42)NH2, read-out: hGIPR Emax, % ± SEM
[5] = cAMP, incubated at 37° C., 0.1% bovine casein (no human serum albumin), read-out: hGIPR EC50, nM (SEM, n)
[6] = 0.1% bovine casein and 1.0% human serum albumin, 37° C., read-out: hGCGR EC50, nM (SEM, n)
[7] = cAMP, incubated at 37° C., 0.1% bovine casein (no human serum albumin), read-out: hGCGR EC50, nM (SEM, n)
[8] = 0.1% bovine casein and 1.0% human serum albumin, 37° C., read-out: hGLP-1R EC50, nM (SEM, n)

Sequence of hGLP-1R (P43220 24-463): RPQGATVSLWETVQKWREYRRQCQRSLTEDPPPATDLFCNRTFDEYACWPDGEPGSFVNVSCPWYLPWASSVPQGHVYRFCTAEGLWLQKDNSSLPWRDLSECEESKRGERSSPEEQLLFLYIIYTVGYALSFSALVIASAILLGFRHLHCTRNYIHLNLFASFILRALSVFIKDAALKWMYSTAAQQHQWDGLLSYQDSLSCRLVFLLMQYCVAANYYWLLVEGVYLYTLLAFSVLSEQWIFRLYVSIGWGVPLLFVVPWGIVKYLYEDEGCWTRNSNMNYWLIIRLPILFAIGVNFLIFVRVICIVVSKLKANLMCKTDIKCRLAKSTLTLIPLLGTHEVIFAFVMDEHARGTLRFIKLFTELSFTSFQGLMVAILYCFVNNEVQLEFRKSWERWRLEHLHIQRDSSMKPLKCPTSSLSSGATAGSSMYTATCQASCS
T2 sequence (P47871 26-477): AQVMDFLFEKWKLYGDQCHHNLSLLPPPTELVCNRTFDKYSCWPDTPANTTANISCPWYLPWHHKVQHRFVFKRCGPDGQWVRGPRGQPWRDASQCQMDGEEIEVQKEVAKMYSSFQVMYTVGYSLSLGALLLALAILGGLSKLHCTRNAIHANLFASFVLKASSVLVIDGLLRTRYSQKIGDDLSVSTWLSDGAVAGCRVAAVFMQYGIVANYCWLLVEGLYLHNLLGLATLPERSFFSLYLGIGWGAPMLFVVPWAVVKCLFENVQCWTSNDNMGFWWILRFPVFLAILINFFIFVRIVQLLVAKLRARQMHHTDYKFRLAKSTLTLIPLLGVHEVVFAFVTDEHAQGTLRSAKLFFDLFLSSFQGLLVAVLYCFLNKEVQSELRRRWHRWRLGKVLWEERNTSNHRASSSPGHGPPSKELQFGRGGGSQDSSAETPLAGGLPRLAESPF

CC[C@H](C)[C@H](NC(=O)[C@H](CCCN)NC(=O)[C@H](CC(=O)O)NC(=O)[C@H](CC(C)C)NC(=O)[C@](C)(CC(C)C)NC(=O)[C@@H](NC(=O)C(C)(C)NC(=O)[C@H](Cc1ccncc1)NC(=O)[C@H](CC(=O)O)NC(=O)[C@H](CO)NC(=O)[C@@H](NC(=O)[C@](C)(Cc1ccccc1F)NC(=O)[C@@H](NC(=O)CNC(=O)[C@H](CCC(=O)O)NC(=O)C(C)(C)NC(=O)[C@@H](N)Cc1ccc(O)cc1)[C@@H](C)O)[C@@H](C)O)[C@@H](C)CC)C(=O)N[C@@H](C)C(=O)N[C@@H](CCC(N)=O)C(=O)NC(C)(C)C(=O)N[C@@H](CCCCNC(=O)COCCOCCNC(=O)COCCOCCNC(=O)CC[C@H](NC(=O)CCCCCCCCCCOc1ccc(C(=O)O)cc1)C(=O)O)C(=O)N[C@@H](Cc1ccccc1)C(=O)N[C@H](C(=O)N[C@H](CCC(=O)O)C(=O)N[C@@](C)(Cc1ccc(O)cc1)C(=O)N[C@@H](CC(C)C)C(=O)N[C@H](C(=O)N[C@@H](CCC(=O)O)C(=O)NCC(=O)NCC(=O)N1CCC[C@H]1C(=O)N[C@@H](CO)C(=O)N[C@@H](CO)C(=O)NCC(=O)N[C@@H](C)C(=O)N1CCC[C@H]1C(=O)N1CCC[C@H]1C(=O)N1CCC[C@H]1C(=O)N[C@@H](CO)C(=O)N[C@@H](CCCCNC(=O)COCCOCCNC(=O)COCCOCCNC(=O)CC[C@H](NC(=O)CCCCCCCCCCOc1ccc(C(=O)O)cc1)C(=O)O)C(N)=O)[C@@H](C)CC)[C@@H](C)CC [Example 242] (H-Y[Aib]EGT[αMePhe(2-F)]TSD[4Pal][Aib]I[αMeL]LD[Orn]IAQ[Aib]K([AEEA-AEEA-γGlu-Undecanoyl(11-OPh(4-COOH))])FI[dE][αMeY]LIEGGPSSGAPPPSK([AEEA-AEEA-γGlu-Undecanoyl(11-OPh(4-COOH))])-NH2)
Emax ([1]; HEK293, read-out: hGIPR Emax, % ± SEM, 0.1% bovine casein and 1.0% human serum albumin, 37° C., percent of maximal response to GIP(1-42)NH2): 83.9%
Emax ([1]; HEK293, read-out: hGIPR Emax, % ± SEM, percent of maximal response to GIP(1-42)NH2, 37° C., 0.1% bovine casein, arithmetic mean): 100%
EC50 ([1]; hGIPR EC50, nM (SEM, n), cAMP, incubated at 37° C., 0.1% bovine casein (no human serum albumin)): 0.0197 nM
EC50 ([2]; hGCGR EC50, nM (SEM, n), 0.1% bovine casein and 1.0% human serum albumin, 37° C.): > 9950 nM
EC50 ([2]; hGCGR EC50, nM (SEM, n), cAMP, incubated at 37° C., 0.1% bovine casein (no human serum albumin)): > 9950 nM
Emax ([3]; HEK293, read-out: hGLP-1R Emax, % ± SEM, percent of maximal response to GLP-1(7-36)NH2, 37° C., 0.1% bovine casein, arithmetic mean): 96.3%
EC50 ([3]; hGLP-1R EC50, nM (SEM, n), cAMP, incubated at 37° C., 0.1% bovine casein (no human serum albumin)): 0.584 nM

CC[C@H](C)[C@H](NC(=O)[C@H](CCCN)NC(=O)[C@H](CC(=O)O)NC(=O)[C@H](CC(C)C)NC(=O)[C@](C)(CC(C)C)NC(=O)[C@@H](NC(=O)[C@H](CO)NC(=O)[C@H](Cc1ccncc1)NC(=O)[C@H](CC(=O)O)NC(=O)[C@H](CO)NC(=O)[C@@H](NC(=O)[C@](C)(Cc1ccccc1F)NC(=O)[C@@H](NC(=O)CNC(=O)[C@H](CCC(=O)O)NC(=O)C(C)(C)NC(=O)[C@@H](N)Cc1ccc(O)cc1)[C@@H](C)O)[C@@H](C)O)[C@@H](C)CC)C(=O)N[C@@H](C)C(=O)N[C@@H](CCC(N)=O)C(=O)NC(C)(C)C(=O)N[C@@H](CCC(=O)O)C(=O)N[C@@H](Cc1ccccc1)C(=O)N[C@H](C(=O)N[C@@H](CCCCNC(=O)COCCOCCNC(=O)COCCOCCNC(=O)COCCOCCNC(=O)CC[C@H](NC(=O)CCCCCCCCCCCCC(=O)O)C(=O)O)C(=O)N[C@@](C)(Cc1ccc(O)cc1)C(=O)N[C@@H](CC(C)C)C(=O)N[C@H](C(=O)N[C@@H](CCCCNC(=O)COCCOCCNC(=O)COCCOCCNC(=O)COCCOCCNC(=O)CC[C@H](NC(=O)CCCCCCCCCCCCC(=O)O)C(=O)O)C(=O)NCC(=O)NCC(=O)N1CCC[C@H]1C(=O)N[C@@H](CO)C(=O)N[C@@H](CO)C(=O)NCC(=O)N[C@@H](C)C(=O)N1CCC[C@H]1C(=O)N1CCC[C@H]1C(=O)N1CCC[C@H]1C(=O)N[C@@H](CO)C(N)=O)[C@@H](C)CC)[C@@H](C)CC [Example 226]
Emax [1, 4]: 92.1%
EC50 [1, 5]: 0.0232 nM
EC50 [2, 6]: > 9950 nM
EC50 [2, 7]: > 9950 nM
EC50 [3, 8]: 11.3 nM
Emax ([3]; HEK293, 0.1% bovine casein and 1.0% human serum albumin, 37° C., percent of maximal response to GLP-1(7-36)NH2, read-out: hGLP-1R Emax, % ± SEM): 118%

CC[C@H](C)[C@H](NC(=O)[C@H](CC(C)C)NC(=O)[C@](C)(Cc1ccc(O)cc1)NC(=O)[C@@H](CCC(=O)O)NC(=O)[C@@H](NC(=O)[C@H](Cc1ccccc1)NC(=O)[C@H](CCCCNC(=O)COCCOCCNC(=O)COCCOCCNC(=O)CCCCCCCCCCCCC(=O)O)NC(=O)C(C)(C)NC(=O)[C@H](CCC(N)=O)NC(=O)[C@H](C)NC(=O)[C@H](CCCCNC(=O)COCCOCCNC(=O)COCCOCCNC(=O)CCCCCCCCCCCCC(=O)O)NC(=O)[C@H](CCCN)NC(=O)[C@H](CC(=O)O)NC(=O)[C@H](CC(C)C)NC(=O)[C@](C)(CC(C)C)NC(=O)[C@@H](NC(=O)[C@H](CO)NC(=O)[C@H](Cc1ccncc1)NC(=O)[C@H](CC(=O)O)NC(=O)[C@H](CO)NC(=O)[C@@H](NC(=O)[C@](C)(Cc1ccccc1F)NC(=O)[C@@H](NC(=O)CNC(=O)[C@H](CCC(=O)O)NC(=O)C(C)(C)NC(=O)[C@@H](N)Cc1ccc(O)cc1)[C@@H](C)O)[C@@H](C)O)[C@@H](C)CC)[C@@H](C)CC)C(=O)N[C@@H](CCC(=O)O)C(=O)NCC(=O)NCC(=O)N1CCC[C@H]1C(=O)N[C@@H](CO)C(=O)N[C@@H](CO)C(=O)NCC(=O)N[C@@H](C)C(=O)N1CCC[C@H]1C(=O)N1CCC[C@H]1C(=O)N1CCC[C@H]1C(=O)N[C@@H](CO)C(N)=O [Example 78]
EC50 ([1]; 0.1% bovine casein and 1.0% human serum albumin, 37° C., read-out: hGIPR EC50, nM (SEM, n)): 0.242 nM
Emax [1, 4]: 89.7 ± 2.65%
EC50 [1, 5]: 0.0145 nM
EC50 [2, 6]: > 9950 nM
EC50 [2, 7]: > 9950 nM
EC50 [3, 8]: 4.29 nM
EC50 ([3]; cAMP, incubated at 37° C., 0.1% bovine casein (no human serum albumin), read-out: hGLP-1R EC50, nM (SEM, n)): 0.286 nM

CCCCCCCCCCCC(=O)N[C@@H](CCC(=O)NCCOCCOCC(=O)NCCOCCOCC(=O)NCCCC[C@H](NC(=O)[C@H](CCCN)NC(=O)[C@H](CC(=O)O)NC(=O)[C@H](CC(C)C)NC(=O)[C@](C)(CC(C)C)NC(=O)[C@@H](NC(=O)C(C)(C)NC(=O)[C@H](Cc1ccc(O)cc1)NC(=O)[C@H](CC(=O)O)NC(=O)[C@H](CO)NC(=O)[C@@H](NC(=O)[C@](C)(Cc1ccccc1F)NC(=O)[C@@H](NC(=O)CNC(=O)[C@H](CCC(=O)O)NC(=O)C(C)(C)NC(=O)[C@@H](N)Cc1ccc(O)cc1)[C@@H](C)O)[C@@H](C)O)[C@@H](C)CC)C(=O)N[C@@H](C)C(=O)N[C@@H](CCC(N)=O)C(=O)NC(C)(C)C(=O)N[C@@H](CCC(=O)O)C(=O)N[C@@H](Cc1ccccc1)C(=O)N[C@H](C(=O)N[C@H](CCC(=O)O)C(=O)N[C@@](C)(Cc1ccc(O)cc1)C(=O)N[C@@H](CC(C)C)C(=O)N[C@H](C(=O)N[C@@H](CCCCNC(=O)COCCOCCNC(=O)COCCOCCNC(=O)CC[C@H](NC(=O)CCCCCCCCCCC)C(=O)O)C(=O)NCC(=O)NCC(=O)N1CCC[C@H]1C(=O)N[C@@H](CO)C(=O)N[C@@H](CO)C(=O)NCC(=O)N[C@@H](C)C(=O)N1CCC[C@H]1C(=O)N1CCC[C@H]1C(=O)N1CCC[C@H]1C(=O)N[C@@H](CO)C(N)=O)[C@@H](C)CC)[C@@H](C)CC)C(=O)O [Example 301]
Emax [1, 4]: 85.5%
Emax ([1]; HEK293, cAMP, 37° C., 0.1% bovine casein, percent of maximal response to GIP(1-42)NH2, arithmetic mean, read-out: hGIPR Emax, % ± SEM): 97.4%
EC50 ([1]; cAMP, 37° C., 0.1% bovine casein (no human serum albumin), read-out: hGIPR EC50, nM (SEM, n)): 0.0128 nM
EC50 [2, 6]: > 9950 nM
EC50 ([2]; cAMP, 37° C., 0.1% bovine casein (no human serum albumin), read-out: hGCGR EC50, nM (SEM, n)): > 9950 nM
EC50 ([3]; cAMP, 37° C., 0.1% bovine casein (no human serum albumin), read-out: hGLP-1R EC50, nM (SEM, n)): 0.175 nM
